Source: US8129371B2, “Thienopyrimidine and pyrazolopyrimidine compounds and their use as mTOR kinase and PI3 kinase inhibitors” (Wyeth LLC, priority 2007, dated 2012)
Where two headings read alike, the source gives them in different places.

What was measured:
Human mTOR (FLAG-TOR) = molecular target: T1, Human mTOR (FLAG-TOR) (Homo sapiens, UniProt P42345); assay: Human mTOR kinase assay with purified enzyme, DELFIA format; type: biochemical
T1 construct: FLAG
Summary of the method: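 DELFIA readout: Eu-anti-P(T389)-S6K antibody (40 ng/mL, 1 h) on captured His6-S6K from the stopped reaction. Kinase step used purified FLAG-tagged human mTOR with test compound in HEPES (pH 7.4)/MnCl2/DTT buffer, 2 h at room temperature (linear 1–6 h), terminated by EDTA/EGTA.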

PI3K [1] = molecular target: T2, PI3K (Homo sapiens, UniProt P42336); assay: Fluorescence polarization assay for PI3K; type: biochemical; conditions: read-out: PI3 Kinase α IC50
T2 construct: PI3 Kinase α IC50; other: PI3 Kinase α; other: PI3 Kinase α isoform, fluorescence polarization
Summary of the method: (§1)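 Fluorescence-polarization competition readout: after 30–60 min of PIP2/ATP turnover in 1% DMSO, a stop mix with GST-GRP (70 nM) and red probe (10 nM) was added.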

PI3K [2] = molecular target: T3, PI3K (Homo sapiens, UniProt P48736); assay: Fluorescence polarization assay for PI3K; type: biochemical; conditions: read-out: PI3 Kinase γ IC50
T3 construct: PI3 Kinase γ IC50; other: PI3 Kinase γ; other: PI3 Kinase γ isoform, fluorescence polarization
Summary of the method: as §1

prostate line LNCap = assay: In vitro cell culture growth assay (MTS), LNCap; type: cell-based; conditions: Homo sapiens, LNCaP, 72 h, LNCap cells, three days after drug treatment
Summary of the method: (§2)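 Plate cells; add inhibitors on day 1; after 3 days' treatment, add MTS; read A490; express as percent growth of vehicle-treated control.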

breast line MDA468 = assay: In vitro cell culture growth assay (MTS), MDA468; type: cell-based; conditions: Homo sapiens, 72 h, MDA468 cells, three days after drug treatment
Summary of the method: as §2

[3] = purified human mTOR enzyme, DELFIA format
[4] = PI3 Kinase α isoform, fluorescence polarization
[5] = PI3 Kinase γ isoform, fluorescence polarization

T2 sequence (P42336 whole entry, canonical isoform): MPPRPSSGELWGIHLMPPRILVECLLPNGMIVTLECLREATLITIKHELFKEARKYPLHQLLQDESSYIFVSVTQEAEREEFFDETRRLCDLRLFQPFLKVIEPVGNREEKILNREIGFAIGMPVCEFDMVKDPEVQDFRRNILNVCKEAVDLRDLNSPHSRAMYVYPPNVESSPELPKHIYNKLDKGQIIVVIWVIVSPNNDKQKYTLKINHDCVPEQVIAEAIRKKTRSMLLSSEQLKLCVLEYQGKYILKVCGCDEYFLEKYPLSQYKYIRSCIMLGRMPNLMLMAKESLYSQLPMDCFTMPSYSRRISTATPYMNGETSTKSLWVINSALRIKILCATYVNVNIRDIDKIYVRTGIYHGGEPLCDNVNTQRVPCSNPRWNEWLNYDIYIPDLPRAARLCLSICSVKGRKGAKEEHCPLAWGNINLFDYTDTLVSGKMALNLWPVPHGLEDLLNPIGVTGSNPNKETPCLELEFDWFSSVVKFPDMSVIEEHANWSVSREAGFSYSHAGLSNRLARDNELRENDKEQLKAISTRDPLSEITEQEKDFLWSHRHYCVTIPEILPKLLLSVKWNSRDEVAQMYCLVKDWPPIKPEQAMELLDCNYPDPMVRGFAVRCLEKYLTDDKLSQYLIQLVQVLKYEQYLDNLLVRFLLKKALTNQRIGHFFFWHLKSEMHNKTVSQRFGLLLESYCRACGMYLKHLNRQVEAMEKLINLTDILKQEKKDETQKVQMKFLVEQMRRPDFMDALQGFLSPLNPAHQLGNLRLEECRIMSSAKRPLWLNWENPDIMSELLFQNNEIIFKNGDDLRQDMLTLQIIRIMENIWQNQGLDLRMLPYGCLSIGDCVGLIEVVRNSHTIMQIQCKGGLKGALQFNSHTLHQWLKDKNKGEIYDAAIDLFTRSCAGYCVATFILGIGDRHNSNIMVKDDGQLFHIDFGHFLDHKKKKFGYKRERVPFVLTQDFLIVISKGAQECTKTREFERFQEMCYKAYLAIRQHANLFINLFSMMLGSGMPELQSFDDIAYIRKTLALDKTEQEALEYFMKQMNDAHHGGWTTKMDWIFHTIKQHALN
T3 sequence (P48736 whole entry, canonical isoform): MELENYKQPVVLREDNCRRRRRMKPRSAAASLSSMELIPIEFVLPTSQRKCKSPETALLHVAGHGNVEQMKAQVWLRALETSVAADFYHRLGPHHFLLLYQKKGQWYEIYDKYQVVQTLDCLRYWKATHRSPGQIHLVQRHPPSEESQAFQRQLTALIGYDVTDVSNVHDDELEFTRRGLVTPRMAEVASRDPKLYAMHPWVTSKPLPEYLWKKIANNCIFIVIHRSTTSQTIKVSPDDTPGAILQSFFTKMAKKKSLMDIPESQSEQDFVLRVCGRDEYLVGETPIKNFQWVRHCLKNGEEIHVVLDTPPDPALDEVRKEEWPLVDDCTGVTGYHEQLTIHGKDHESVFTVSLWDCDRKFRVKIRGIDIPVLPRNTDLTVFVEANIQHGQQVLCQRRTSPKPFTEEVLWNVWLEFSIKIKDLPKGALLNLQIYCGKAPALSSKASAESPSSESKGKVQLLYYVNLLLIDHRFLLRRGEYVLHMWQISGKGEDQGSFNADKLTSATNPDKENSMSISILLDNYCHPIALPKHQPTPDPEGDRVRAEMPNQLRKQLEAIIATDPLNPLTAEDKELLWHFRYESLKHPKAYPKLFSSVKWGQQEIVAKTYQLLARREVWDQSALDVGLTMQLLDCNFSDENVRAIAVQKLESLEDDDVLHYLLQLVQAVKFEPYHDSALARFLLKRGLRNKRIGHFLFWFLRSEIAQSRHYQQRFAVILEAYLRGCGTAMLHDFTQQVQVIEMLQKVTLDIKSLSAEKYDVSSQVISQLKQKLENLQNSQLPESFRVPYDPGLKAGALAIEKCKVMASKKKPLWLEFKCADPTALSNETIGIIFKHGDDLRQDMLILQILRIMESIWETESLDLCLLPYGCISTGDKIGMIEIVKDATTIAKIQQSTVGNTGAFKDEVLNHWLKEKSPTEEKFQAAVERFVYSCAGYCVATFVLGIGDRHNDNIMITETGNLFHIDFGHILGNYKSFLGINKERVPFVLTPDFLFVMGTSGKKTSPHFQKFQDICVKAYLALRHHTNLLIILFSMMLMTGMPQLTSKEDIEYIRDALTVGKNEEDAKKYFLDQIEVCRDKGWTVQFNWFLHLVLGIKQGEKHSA

Row | Structure (SMILES) | IC50 (Human mTOR (FLAG-TOR)) | IC50 (PI3K [1]; PI3 Kinase α) | IC50 (PI3K [2]; PI3 Kinase γ) | IC50 (prostate line LNCap) | IC50 (Human mTOR (FLAG-TOR); [3]) | IC50 (PI3K [1]; [4]) | IC50 (PI3K [2]; [5]) | IC50 (breast line MDA468)
1 | CCn1ncc2c(N3CC4CCC(C3)O4)nc(-c3ccc(NC(=O)NCCNC)cc3)nc21 [Example 174, 1-{4-[1-ethyl-4-(8-oxa-3-azabicyclo[3.2.1]oct-3-yl)-1H-pyrazolo[3,4-d]pyrimidin-6-yl]phenyl}-3-[2-(methylamino)ethyl]urea] | 4.7 nM | 232 nM | 4980 nM | 190 nM | – | – | – | 700 nM
2 | O=C(Nc1ccc(CO)cc1)Nc1ccc(-c2nc(N3C4CCC3COC4)c3cnn(CC(F)(F)F)c3n2)cc1 [Example 269, 1-[4-(hydroxymethyl)phenyl]-3-{4-[4-(3-oxa-8-azabicyclo[3.2.1]oct-8-yl)-1-(2,2,2-trifluoroethyl)-1H-pyrazolo[3,4-d]pyrimidin-6-yl]phenyl}urea] | 0.079 nM | 117 nM | 2130 nM | < 1 nM | – | – | – | < 1 nM
3 | CNC(=O)Nc1ccc(-c2nc(N3C[C@H]4C[C@@H]3CO4)c3cnn(CC(F)(F)F)c3n2)cc1 [Example 341, 1-methyl-3-(4-{4-[(1R,4R)-2-oxa-5-azabicyclo[2.2.1]hept-5-yl]-1-(2,2,2-trifluoroethyl)-1H-pyrazolo[3,4-d]pyrimidin-6-yl}phenyl)urea] | – | – | – | 2500 nM | 91 nM | 4630 nM | > 10000 nM | 5000 nM
4 | CCOC(=O)N1CCC(n2ncc3c(N4CC5CCC(C4)O5)nc(-c4ccc(NC(=O)Nc5ccn[nH]5)cc4)nc32)CC1 [Example 39, ethyl 4-[4-(8-oxa-3-azabicyclo[3.2.1]oct-3-yl)-6-{4-[(1H-pyrazol-5-ylcarbamoyl)amino]phenyl}-1H-pyrazolo[3,4-d]pyrimidin-1-yl]piperidine-1-carboxylate] | 96 nM | 5700 nM | 8880 nM | 2600 nM | – | – | – | 8000 nM
5 | CC(C)n1ncc2c(N3CC4CCC(C3)O4)nc(-c3ccc(NC(=O)OCC(O)CO)cc3)nc21 (stereo not drawn) [Example 146, 2,3-dihydroxypropyl {4-[1-isopropyl-4-(8-oxa-3-azabicyclo[3.2.1]oct-3-yl)-1H-pyrazolo[3,4-d]pyrimidin-6-yl]phenyl}carbamate] | 2.9 nM | 2150 nM | 7640 nM | 110 nM | – | – | – | 580 nM
6 | O=C(Nc1ccc(-c2nc(N3CC4C[C@@H](O)C(C3)O4)c3cnn(CC(F)(F)F)c3n2)cc1)OCCO (stereo partly drawn) [Example 379, 2-hydroxyethyl (4-{4-[(6R)-6-hydroxy-8-oxa-3-azabicyclo[3.2.1]oct-3-yl]-1-(2,2,2-trifluoroethyl)-1H-pyrazolo[3,4-d]pyrimidin-6-yl}phenyl)carbamate] | – | – | – | 6800 nM | 245 nM | > 10000 nM | > 10000 nM | 5000 nM
7 | COC(=O)N1CCC(n2ncc3c(N4C5CCC4COC5)nc(-c4ccc(NC(=O)Nc5ccc(CN(C)C)cc5)cc4)nc32)CC1 [Example 366] | – | – | – | 10 nM | 0.795 nM | 2070 nM | 1500 nM | 20 nM
8 | O=C(Nc1ccc(-c2nc(N3CC4CCC(C3)O4)c3cnn(C4CCC5(CC4)OCCO5)c3n2)cc1)OCCCO [Example 122, 3-hydroxypropyl {4-[1-(1,4-dioxaspiro[4.5]dec-8-yl)-4-(8-oxa-3-azabicyclo[3.2.1]oct-3-yl)-1H-pyrazolo[3,4-d]pyrimidin-6-yl]phenyl}carbamate] | 4 nM | > 10000 nM | > 10000 nM | 190 nM | – | – | – | 1800 nM
9 | CCNC(=O)Nc1ccc(-c2nc(N3C4CCC3COC4)c3cnn(C4CCN(C(=O)OC)CC4)c3n2)cc1 [Example 357, methyl 4-[6-{4-[(ethylcarbamoyl)amino]phenyl}-4-(3-oxa-8-azabicyclo[3.2.1]oct-8-yl)-1H-pyrazolo[3,4-d]pyrimidin-1-yl]piperidine-1-carboxylate] | – | – | – | 9 nM | 0.625 nM | 5550 nM | 9160 nM | 70 nM

More lines, main results first:

Row | IC50 (Human mTOR (FLAG-TOR)) | IC50 (PI3K [1]; PI3 Kinase α) | IC50 (PI3K [2]; PI3 Kinase γ) | IC50 (prostate line LNCap) | IC50 (Human mTOR (FLAG-TOR); [3]) | IC50 (PI3K [1]; [4]) | IC50 (PI3K [2]; [5]) | Structure (SMILES) | IC50 (breast line MDA468)
10 | 1 nM | 877 nM | 9500 nM | 100 nM | – | – | – | Cn1ncc2c(N3CC4CCC(C3)O4)nc(-c3ccc(NC(=O)NCCF)cc3)nc21 [Example 52, 1-(2-fluoroethyl)-3-{4-[1-methyl-4-(8-oxa-3-azabicyclo[3.2.1]oct-3-yl)-1H-pyrazolo[3,4-d]pyrimidin-6-yl]phenyl}urea] | 500 nM
11 | – | – | – | 1 nM | 0.455 nM | 511 nM | 2020 nM | O=C(Nc1ccc(-c2nc(N3CC4CCC(C3)O4)c3cnn(C4CCC5(CCCO5)CC4)c3n2)cc1)Nc1ccc(N2CCNCC2)cc1 (single isomer, unassigned) [Example 314, 1-(4-{4-(8-oxa-3-azabicyclo[3.2.1]oct-3-yl)-1-[(5r,8r)-1-oxaspiro[4.5]dec-8-yl]-1H-pyrazolo[3,4-d]pyrimidin-6-yl}phenyl)-3-(4-piperazin-1-ylphenyl)urea] | 15 nM
12 | 0.13 nM | 47 nM | 468 nM | < 1 nM | – | – | – | Cn1ncc2c(N3CC4CCC(C3)O4)nc(-c3ccc(NC(=O)Nc4ccc(CO)cc4)cc3)nc21 [Example 231, 1-[4-(hydroxymethyl)phenyl]-3-{4-[1-methyl-4-(8-oxa-3-azabicyclo[3.2.1]oct-3-yl)-1H-pyrazolo[3,4-d]pyrimidin-6-yl]phenyl}urea] | < 1 nM
13 | 0.63 nM | 1620 nM | > 10000 nM | 38 nM | – | – | – | CNC(=O)Nc1ccc(-c2nc(N3CC4CCC(C3)O4)c3cnn(CC(F)(F)F)c3n2)cc1 [Example 1, 1-methyl-3-{4-[4-(8-oxa-3-azabicyclo[3.2.1]oct-3-yl)-1-(2,2,2-trifluoroethyl)-1H-pyrazolo[3,4-d]pyrimidin-6-yl]phenyl}urea] | 46 nM
14 | – | – | – | 5 nM | 0.4 nM | 3630 nM | > 10000 nM | O=C(Nc1ccc(-c2nc(N3CC4CCC(C3)O4)c3cnn([C@H]4CC[C@H](O)CC4)c3n2)cc1)NC1CC1 (relative stereo) [Example 403, 1-cyclopropyl-3-{4-[1-(trans-4-hydroxycyclohexyl)-4-(8-oxa-3-azabicyclo[3.2.1]oct-3-yl)-1H-pyrazolo[3,4-d]pyrimidin-6-yl]phenyl}urea] | 180 nM
15 | 0.17 nM | 112 nM | 348 nM | < 1 nM | – | – | – | N#CCCn1ncc2c(N3CC4CCC(C3)O4)nc(-c3ccc(NC(=O)Nc4ccncc4)cc3)nc21 [Example 217, 1-{4-[1-(2-cyanoethyl)-4-(8-oxa-3-azabicyclo[3.2.1]oct-3-yl)-1H-pyrazolo[3,4-d]pyrimidin-6-yl]phenyl}-3-pyridin-4-ylurea] | 1 nM
16 | 0.445 nM | 70 nM | 260 nM | 4 nM | – | – | – | CN1CCN(c2ccc(NC(=O)Nc3ccc(-c4nc(N5CC6CCC(C5)O6)c5cnn(C)c5n4)cc3)cc2)CC1 [Example 236, 1-{4-[1-methyl-4-(8-oxa-3-azabicyclo[3.2.1]oct-3-yl)-1H-pyrazolo[3,4-d]pyrimidin-6-yl]phenyl}-3-[4-(4-methylpiperazin-1-yl)phenyl]urea] | 43 nM
17 | 0.61 nM | 1060 nM | > 10000 nM | 17 nM | – | – | – | CC(C)(C)n1ncc2c(N3CC4CCC(C3)O4)nc(-c3ccc(NC(=O)NCCF)cc3)nc21 [Example 95] | 280 nM
18 | – | – | – | 1 nM | 5.5 nM | 572 nM | 5280 nM | CN(C)CCOc1ccc(NC(=O)Nc2ccc(-c3nc(N4C[C@@H]5C[C@H]4CO5)c4cnn(CC(F)(F)F)c4n3)cc2)cc1 [Example 300, 1-{4-[2-(dimethylamino)ethoxy]phenyl}-3-(4-{4-[(1S,4S)-2-oxa-5-azabicyclo[2.2.1]hept-5-yl]-1-(2,2,2-trifluoroethyl)-1H-pyrazolo[3,4-d]pyrimidin-6-yl}phenyl)urea] | 12 nM
19 | 0.23 nM | 2460 nM | 9500 nM | 17 nM | – | – | – | CCNC(=O)Nc1ccc(-c2nc(N3CC4CCC(C3)O4)c3cnn(C4CCN(C(=O)OC(C)C)CC4)c3n2)cc1 [Example 67, isopropyl 4-[6-{4-[(ethylcarbamoyl)amino]phenyl}-4-(8-oxa-3-azabicyclo[3.2.1]oct-3-yl)-1H-pyrazolo[3,4-d]pyrimidin-1-yl]piperidine-1-carboxylate] | 150 nM
20 | 0.63 nM | 149 nM | 794 nM | 20 nM | – | – | – | CC(C)(C)n1ncc2c(N3CC4CCC(C3)O4)nc(-c3ccc(NC(=O)Nc4cccnc4)cc3)nc21 [Example 100] | 130 nM
21 | 0.49 nM | 274 nM | 11300 nM | 6 nM | – | – | – | O=C(Nc1ccc(-c2nc(N3CC4CCC(C3)O4)c3cnn(CCO)c3n2)cc1)Nc1ccc(N2CCOCC2)cc1 [Example 204, 1-{4-[1-(2-hydroxyethyl)-4-(8-oxa-3-azabicyclo[3.2.1]oct-3-yl)-1H-pyrazolo[3,4-d]pyrimidin-6-yl]phenyl}-3-(4-morpholin-4-ylphenyl)urea] | 35 nM
